Assay results as given in ChEMBL document CHEMBL5316284, “Structural Determinants of Indole-2-carboxamides: Identification of Lead Acetamides with Pan Antimycobacterial Activity” (J Med Chem, 2023).
≈ marks a conversion by molar mass, not a printed value.

Columns and labels:
[1] = system: Mycobacterium tuberculosis; test: Antimycobacterial activity against Mycobacterium tuberculosis H37Rv mc2 6206 assessed as inhibition of bacterial growth measured after 7 days by visual analysis; type: functional; details: H37Rv mc2 6206, 168 h, time 7 day
[2] = system: Mycobacteroides abscessus; test: Antimycobacterial activity against Mycobacterium abscessus […] assessed as inhibition of bacterial growth measured after 5 days by visual analysis; type: functional; details: 120 h, time 5 day
[3] = Metabolic stability in human liver S9 fraction assessed as parent compound remaining at 5 ug/ml after 90 mins in presence of NADPH by LC/MS analysis; type: ADME, subcellular; details: s9, 1.5 h, dose 5 µg/ml
[4] = Selectivity index, ratio of IC50 for Cytotoxicity against human WI26VA4 cells to MIC for antimycobacterial activity against Mycobacterium abscessus […]; type: toxicity, cell-based; details: read-out: Selectivity Index
[5] = Cytotoxicity against human WI26VA4 cells assessed as inhibition of cell growth measured after 72 hrs by MTT assay; type: toxicity, cell-based
[6] = Permeability of the compound by PAMPA method; type: ADME
[7] = Selectivity index, ratio of IC50 for Cytotoxicity against human WI26VA4 cells to MIC for antimycobacterial activity against Mycobacterium tuberculosis H37Rv mc2 6206; type: toxicity, cell-based; details: read-out: Selectivity Index
[8] = Kinetic solubility of compound at pH 7.4 incubated for 6 hrs by LC-MS/MS analysis; type: physicochemical; details: buffer, read-out: Kinetic_solubility
[9] = Plasma protein binding in human at 10 ug/ml incubated for 4 hrs under shaking condition by LC/MS/MS analysis; type: ADME, cell-free; details: at 10 µg/mL, read-out: PPB (converted)
[10] = Metabolic stability in mouse liver S9 fraction assessed as parent compound remaining at 5 ug/ml after 90 mins in presence of NADPH by LC/MS analysis; type: ADME, subcellular; details: s9, 1.5 h, dose 5 µg/ml
[11] = system: Mycobacteroides chelonae; test: Antimycobacterial activity against Mycobacteroides chelonae ATCC 35752 assessed as inhibition of bacterial growth by visual analysis; type: functional
[12] = system: Mycobacterium kansasii; test: Antimycobacterial activity against Mycobacterium kansasii ATCC 1279 assessed as inhibition of bacterial growth by visual analysis; type: functional
[13] = system: Mycobacterium intracellulare; test: Antimycobacterial activity against Mycobacterium intracellulare 1956 assessed as inhibition of bacterial growth by visual analysis; type: functional
[14] = system: Mycolicibacterium fortuitum; test: Antimycobacterial activity against Mycobacterium fortuitum ATCC 6841 assessed as inhibition of bacterial growth by visual analysis; type: functional
[15] = system: Mycobacterium intracellulare subsp. chimaera; test: Antimycobacterial activity against Mycobacterium intracellulare subsp. chimaera 1501948 assessed as inhibition of bacterial growth by visual analysis; type: functional
[16] = Antimycobacterial activity against Mycobacterium avium subsp. avium 2585R assessed as inhibition of bacterial growth by visual analysis; type: functional

Row | Compound | MIC [1] [µg/mL] | MIC [2] [µg/mL] | also measured
1 | O=C(CNc1ccccc1Cl)NC12CC3CC(CC(C3)C1)C2 | 8 (≈ 25.1 µM) | 16 (≈ 50.2 µM) | 
2 | O=C(CNc1ccc(Cl)cc1)NC1C2CC3CC(C2)CC1C3 (stereo unspecified) | 64 (≈ 201 µM) | > 64 | 
3 | Cc1ccc(NCC(=O)N[C@H]2CC[C@H](C)CC2)cc1 | 64 (≈ 246 µM) | > 64 | 
4 | O=C(CNc1cccc(Br)c1)NC12CC3CC(CC(C3)C1)C2 | 32 (≈ 88.1 µM) | 1 (≈ 2.75 µM) | t1/2 [3]: 0.5 h; selectivity ratio [4]: > 20; IC50 [5]: > 20 µg/mL; permeability [6]: 1.02 10^-6 cm/s; selectivity ratio [7]: > 20; solubility kinetic at 6 h [8]: 22.2 µg/mL (≈ 61.1 µM); fraction unbound at 4 h, 10 ug/ml [9]: 0.068
5 | COc1ccc(NCC(=O)NC2C3CC4CC(C3)CC2C4)cc1 (stereo unspecified) | 32 (≈ 102 µM) | 32 (≈ 102 µM) | 
6 | O=C(CNc1ccc(OC(F)(F)F)cc1)NC12CC3CC(CC(C3)C1)C2 | 16 (≈ 43.4 µM) | 2 (≈ 5.43 µM) | t1/2 [3]: 3.1 h; selectivity ratio [4]: > 10; IC50 [5]: > 20 µg/mL; permeability [6]: 0.47 10^-6 cm/s; t1/2 [10]: 4.1 h; selectivity ratio [7]: > 1.2; solubility kinetic at 6 h [8]: 6.79 µg/mL (≈ 18.4 µM); fraction unbound at 4 h, 10 ug/ml [9]: 0.002
7 | O=C(CNc1ccc(C(F)(F)F)cc1)NC12CC3CC(CC(C3)C1)C2 | 8 (≈ 22.7 µM) | 8 (≈ 22.7 µM) | 
8 | C[C@@H]1[C@H]2C[C@@H](C[C@H]1NC(=O)CNc1ccc(C(F)(F)F)cc1)C2(C)C | 16 (≈ 45.1 µM) | 32 (≈ 90.3 µM) | 
9 | C[C@@H]1[C@H]2C[C@@H](C[C@H]1NC(=O)CNc1cccc(Br)c1)C2(C)C | 0.5 (≈ 1.37 µM) | 1 (≈ 2.74 µM) | MIC [11]: 8 µg/mL (≈ 21.9 µM); t1/2 [3]: 4.2 h; selectivity ratio [4]: > 20; IC50 [5]: > 20 µg/mL; permeability [6]: 1.01 10^-6 cm/s; MIC [12]: 8 µg/mL (≈ 21.9 µM); MIC [13]: 8 µg/mL (≈ 21.9 µM); t1/2 [10]: 5.8 h; selectivity ratio [7]: > 40; MIC [14]: 2 µg/mL (≈ 5.47 µM); solubility kinetic at 6 h [8]: 18.6 µg/mL (≈ 50.9 µM); MIC [15]: 16 µg/mL (≈ 43.8 µM); fraction unbound at 4 h, 10 ug/ml [9]: 0.045; MIC [16]: 16 µg/mL (≈ 43.8 µM)
10 | Cc1ccc(NCC(=O)NC23CC4CC(CC(C4)C2)C3)cc1 | 32 (≈ 107 µM) | 32 (≈ 107 µM) | 
11 | O=C(CNc1cccc(Cl)c1)NC12CC3CC(CC(C3)C1)C2 | 1 (≈ 3.14 µM) | 1 (≈ 3.14 µM) | t1/2 [3]: 5.6 h; selectivity ratio [4]: > 20; IC50 [5]: > 20 µg/mL; permeability [6]: 0.32 10^-6 cm/s; t1/2 [10]: 1.7 h; selectivity ratio [7]: > 20; solubility kinetic at 6 h [8]: 30.3 µg/mL (≈ 95 µM); fraction unbound at 4 h, 10 ug/ml [9]: 0.002
12 | COc1ccc(NCC(=O)N[C@@H]2C[C@@H]3C[C@H]([C@H]2C)C3(C)C)cc1 | 64 (≈ 202 µM) | 32 (≈ 101 µM) | 
13 | C[C@@H]1[C@H]2C[C@@H](C[C@H]1NC(=O)CNc1ccc(Br)cc1)C2(C)C | 16 (≈ 43.8 µM) | 4 (≈ 10.9 µM) | 
14 | CNC(=C[N+](=O)[O-])NCCSCc1ccc(CN(C)C)o1 [RANITIDINE] |  |  | permeability [6]: 3.47 10^-6 cm/s; solubility kinetic at 6 h [8]: 77.5 µg/mL (≈ 246 µM); fraction unbound at 4 h, 10 ug/ml [9]: 0.793
15 | C[C@@H]1[C@H]2C[C@@H](C[C@H]1NC(=O)CNc1ccccc1)C2(C)C | 64 (≈ 223 µM) | > 64 | 
16 | O=C(CNc1ccc(C(F)(F)F)cc1)NC1CCCCCCC1 | 32 (≈ 97.4 µM) | 64 (≈ 195 µM) | 
17 | O=C(CNc1ccc(Br)cc1)NC1C2CC3CC(C2)CC1C3 (stereo unspecified) | 4 (≈ 11 µM) | 4 (≈ 11 µM) | 
18 | O=C(CNc1ccccc1)NC1CCCCCCC1 | 8 (≈ 30.7 µM) | 8 (≈ 30.7 µM) | 
19 | C[C@H]1CC[C@H](NC(=O)CNc2ccc(Cl)cc2)CC1 | 64 (≈ 228 µM) | > 64 | 

Row | Compound | MIC [1] [µg/mL] | MIC [2] [µg/mL] | also measured
20 | COc1ccc(NCC(=O)NC23CC4CC(CC(C4)C2)C3)cc1 | 32 (≈ 102 µM) | 32 (≈ 102 µM) | 
21 | O=C(CNc1ccccc1Br)NC12CC3CC(CC(C3)C1)C2 | 8 (≈ 22 µM) | 8 (≈ 22 µM) | 
22 | O=C(CNc1ccc(Br)cc1)NC12CC3CC(CC(C3)C1)C2 | 8 (≈ 22 µM) | 2 (≈ 5.51 µM) | t1/2 [3]: 2.5 h; selectivity ratio [4]: > 10; IC50 [5]: > 20 µg/mL; permeability [6]: 0.28 10^-6 cm/s; t1/2 [10]: 4 h; selectivity ratio [7]: > 2.5; solubility kinetic at 6 h [8]: 1.3 µg/mL (≈ 3.58 µM); fraction unbound at 4 h, 10 ug/ml [9]: 0.004
23 | Cc1ccc(NCC(=O)NC2CCCCCCC2)cc1 | 32 (≈ 117 µM) | > 64 | 
24 | C[C@@H]1[C@H]2C[C@@H](C[C@H]1NC(=O)CNc1ccc(Cl)cc1)C2(C)C | 16 (≈ 49.9 µM) | 4 (≈ 12.5 µM) | 
25 | O=C(CNc1ccc(OC(F)(F)F)cc1)NC1CCCCCCC1 | 32 (≈ 92.9 µM) | 8 (≈ 23.2 µM) | 
26 | O=C(CNc1ccccc1OC(F)(F)F)NC12CC3CC(CC(C3)C1)C2 | 1 (≈ 2.71 µM) | > 64 | 
27 | O=C(CNc1ccccc1)NC1C2CC3CC(C2)CC1C3 (stereo unspecified) | 16 (≈ 56.3 µM) | > 64 | 
28 | COc1ccc(NCC(=O)NC2CCCCCCC2)cc1 | 64 (≈ 220 µM) | > 64 | 
29 | O=C(CNc1ccccc1)NC1CCCCCC1 | 64 (≈ 260 µM) | > 64 | 
30 | O=C(CNc1ccc(Cl)cc1)NC12CC3CC(CC(C3)C1)C2 | 16 (≈ 50.2 µM) | 4 (≈ 12.5 µM) | 
31 | O=C(CNc1ccc(Cl)cc1)NC1CCCCCCC1 | 64 (≈ 217 µM) | 32 (≈ 109 µM) | 
32 | O=C(CNc1ccccc1)NC12CC3CC(CC(C3)C1)C2 | 32 (≈ 113 µM) | 16 (≈ 56.3 µM) | 
33 | C[C@@H]1[C@H]2C[C@@H](C[C@H]1NC(=O)CNc1ccc(OC(F)(F)F)cc1)C2(C)C | 4 (≈ 10.8 µM) | 1 (≈ 2.7 µM) | t1/2 [3]: 9.2 h; selectivity ratio [4]: > 20; IC50 [5]: > 20 µg/mL; permeability [6]: 3.19 10^-6 cm/s; t1/2 [10]: 4.1 h; selectivity ratio [7]: > 5; solubility kinetic at 6 h [8]: 4.5 µg/mL (≈ 12.1 µM); fraction unbound at 4 h, 10 ug/ml [9]: 0.048
34 | Cc1ccc(NCC(=O)N[C@@H]2C[C@@H]3C[C@H]([C@H]2C)C3(C)C)cc1 | 16 (≈ 53.3 µM) | 8 (≈ 26.6 µM) | 
35 | O=C(CNc1ccc(C(F)(F)F)cc1)NC1C2CC3CC(C2)CC1C3 (stereo unspecified) | 2 (≈ 5.68 µM) | 4 (≈ 11.4 µM) | t1/2 [3]: 5.8 h; selectivity ratio [4]: > 5; IC50 [5]: > 20 µg/mL; permeability [6]: 0.34 10^-6 cm/s; t1/2 [10]: 15.6 h; selectivity ratio [7]: > 10; solubility kinetic at 6 h [8]: 23.9 µg/mL (≈ 67.8 µM); fraction unbound at 4 h, 10 ug/ml [9]: 0.057
36 | O=C(CNc1ccc(OC(F)(F)F)cc1)NC1C2CC3CC(C2)CC1C3 (stereo unspecified) | 4 (≈ 10.9 µM) | 2 (≈ 5.43 µM) | t1/2 [3]: 5.9 h; selectivity ratio [4]: > 10; IC50 [5]: > 20 µg/mL; permeability [6]: 3.12 10^-6 cm/s; t1/2 [10]: 3.7 h; selectivity ratio [7]: > 5; solubility kinetic at 6 h [8]: 20.3 µg/mL (≈ 55.1 µM); fraction unbound at 4 h, 10 ug/ml [9]: 0.033
37 | C[C@H]1CC[C@H](NC(=O)CNc2ccccc2)CC1 | 64 (≈ 260 µM) | > 64 | 
38 | Cc1ccc(NCC(=O)NC2C3CC4CC(C3)CC2C4)cc1 (stereo unspecified) | 4 (≈ 13.4 µM) | 16 (≈ 53.6 µM) | 
